Reference: US20120220562A1, “Anti-Viral Compounds” (ABBOTT LABAORATORIES, priority 2011, published 2012)

The molecules below were run on HCV 1b-Con1 replicon (assay: HCV 1b-Con1 replicon assay in the presence of 5% FBS). Conditions: Hepatitis C virus.
Assay type: cell-based

| SMILES | EC50 [nM] |
| --- | --- |
| COC(=O)N[C@H](C(=O)N1CCC[C@H]1c1nc2cc([C@H]3CC[C@H](c4ccc5[nH]c([C@@H]6CCCN6C(=O)[C@@H](NC(=O)OC)C(C)C)nc5c4)N3c3cc(F)c(N4CCC5(CCCCC5)CC4)c(F)c3)ccc2[nH]1)C(C)C [Example 5.12, methyl {(2S)-1-[(2S)-2-{5-[(2R,5R)-1-[4-(3-azaspiro[5.5]undec-3-yl)-3,5-difluorophenyl]-5-{2-[(2S)-1-{(2S)-2-[(methoxycarbonyl)amino]-3-methylbutanoyl}pyrrolidin-2-yl]-1H-benzimidazol-5-yl}pyrrolidin-2-yl]-1H-benzimidazol-2-yl}pyrrolidin-1-yl]-3-methyl-1-oxobutan-2-yl}carbamate] | < 0.1 |
| COC(=O)N[C@H](C(=O)N1CCC[C@H]1c1nc2ccc([C@H]3CC[C@H](c4ccc5nc([C@@H]6CCCN6C(=O)[C@@H](NC(=O)OC)C(C)C)[nH]c5c4)N3c3cc(F)c(N4CCC(c5ccc(OC)cc5)CC4)c(F)c3)cc2[nH]1)C(C)C [Example 4.34, methyl {(2S)-1-[(2S)-2-{6-[(2R,5R)-1-{3,5-difluoro-4-[4-(4-methoxyphenyl)piperidin-1-yl]phenyl}-5-{2-[(2S)-1-{(2S)-2-[(methoxycarbonyl)amino]-3-methylbutanoyl}pyrrolidin-2-yl]-1H-benzimidazol-6-yl}pyrrolidin-2-yl]-1H-benzimidazol-2-yl}pyrrolidin-1-yl]-3-methyl-1-oxobutan-2-yl}carbamate] | < 0.1 |
| COC(=O)N[C@H](C(=O)N1CCC[C@H]1c1nc(-c2ccc(-c3ccn(-c4ccc(-c5c[nH]c([C@@H]6CCCN6C(=O)[C@@H](NC(=O)OC)C(C)C)n5)cc4)c3-c3ccc(C(C)(C)C)cc3)cc2)c[nH]1)C(C)C [Example 7.1, methyl {(2S)-1-[(2S)-2-(4-{4-[2-(4-tert-butylphenyl)-1-(4-{2-[(2S)-1-{(2S)-2-[(methoxycarbonyl)amino]-3-methylbutanoyl}pyrrolidin-2-yl]-1H-imidazol-4-yl}phenyl)-1H-pyrrol-3-yl]phenyl}-1H-imidazol-2-yl)pyrrolidin-1-yl]-3-methyl-1-oxobutan-2-yl}carbamate] | < 0.1 |
| COC(=O)N[C@H](C(=O)N1CCC[C@H]1c1nc2ccc([C@H]3CC[C@H](c4ccc5nc([C@@H]6CCCN6C(=O)[C@@H](NC(=O)OC)C6CC6)[nH]c5c4)N3c3ccc(C(C)(C)C)cc3)cc2[nH]1)C1CC1 [Example 4.16, dimethyl ([(2R,5R)-1-(4-tert-butylphenyl)pyrrolidine-2,5-diyl]bis{1H-benzimidazole-6,2-diyl(2S)pyrrolidine-2,1-diyl [(1S)-1-cyclopropyl-2-oxoethane-2,1-diyl]}) biscarbamate] | < 0.1 |
| COC(=O)N[C@H](C(=O)N1CCC[C@H]1c1nc2cc([C@H]3CC[C@H](c4ccc5[nH]c([C@@H]6CCCN6C(=O)[C@@H](NC(=O)OC)C(C)C)nc5c4)N3c3cc(F)c(N4CCC(C(C)C)CC4)c(F)c3)ccc2[nH]1)C(C)C [Example 4.22, methyl {(2S)-1-[(2S)-2-{5-[(2R,5R)-1-{3,5-difluoro-4-[4-(propan-2-yl)piperidin-1-yl]phenyl}-5-{2-[(2S)-1-{(2S)-2-[(methoxycarbonyl)amino]-3-methylbutanoyl}pyrrolidin-2-yl]-1H-benzimidazol-5-yl}pyrrolidin-2-yl]-1H-benzimidazol-2-yl}pyrrolidin-1-yl]-3-methyl-1-oxobutan-2-yl}carbamate] | < 0.1 |
| COC(=O)N[C@H](C(=O)N1CCC[C@H]1c1nc2cc([C@H]3CC[C@H](c4ccc5[nH]c([C@@H]6CCCN6C(=O)[C@@H](NC(=O)OC)C(C)C)nc5c4)N3c3cc(F)c(N4CCC5(CC4)OCCO5)c(F)c3)ccc2[nH]1)C(C)C [Example 5.14] | < 0.1 |
| COC(=O)N[C@H](C(=O)N1CCC[C@H]1c1nc2cc([C@H]3CC[C@H](c4ccc5[nH]c([C@@H]6CCCN6C(=O)[C@@H](NC(=O)OC)C(C)C)nc5c4)N3c3cc(Cl)c(N4CCCCC4)c(Cl)c3)ccc2[nH]1)C(C)C [Example 4.4, methyl {(2S)-1-[(2S)-2-{5-[(2R,5R)-1-[3,5-dichloro-4-(piperidin-1-yl)phenyl]-5-{2-[(2S)-1-{(2S)-2-[(methoxycarbonyl)amino]-3-methylbutanoyl}pyrrolidin-2-yl]-1H-benzimidazol-5-yl}pyrrolidin-2-yl]-1H-benzimidazol-2-yl}pyrrolidin-1-yl]-3-methyl-1-oxobutan-2-yl}carbamate] | < 0.1 |
| COC(=O)N[C@H](C(=O)N1CCC[C@H]1c1nc2cc([C@H]3CC[C@H](c4ccc5[nH]c([C@@H]6CCCN6C(=O)[C@@H](NC(=O)OC)C6CCOCC6)nc5c4)N3c3ccc(C(C)(C)C)cc3)ccc2[nH]1)C1CCOCC1 [Example 3.6, dimethyl ([(2R,5R)-1-(4-tert-butylphenyl)pyrrolidine-2,5-diyl]bis{1H-benzimidazole-5,2-diyl(2S)pyrrolidine-2,1-diyl[(1S)-2-oxo-1-(tetrahydro-2H-pyran-4-yl)ethane-2,1-diyl]})biscarbamate] | < 0.1 |
| COC(=O)N[C@H](C(=O)N1C[C@@H](F)C[C@H]1c1nc2cc([C@H]3CC[C@H](c4ccc5[nH]c([C@@H]6C[C@H](F)CN6C(=O)[C@@H](NC(=O)OC)C(C)C)nc5c4)N3c3ccc(C(C)(C)C)cc3)ccc2[nH]1)C(C)C [Example 3.12, methyl {(2S)-1-[(2S,4S)-2-{5-[(2R,5R)-1-(4-tert-butylphenyl)-5-{2-[(2S,45)-4-fluoro-1-{(2S)-2-[(methoxycarbonyl)amino]-3-methylbutanoyl}pyrrolidin-2-yl]-1H-benzimidazol-5-yl}pyrrolidin-2-yl]-1H-benzimidazol-2-yl}-4-fluoropyrrolidin-1-yl]-3-methyl-1-oxobutan-2-yl}carbamate] | < 0.1 |
| COC(=O)N[C@H](C(=O)N1CCC[C@H]1c1nc2cc([C@H]3CC[C@H](c4ccc5[nH]c([C@@H]6CCCN6C(=O)[C@@H](NC(=O)OC)C(C)C)nc5c4)N3c3cc(F)c(N4C[C@H]5CC[C@H]5C4)c(F)c3)ccc2[nH]1)C(C)C [Example 1.8, methyl {(2S)-1-[(2S)-2-{5-[(2R,5R)-1-{4-[(1R,5S)-3-azabicyclo[3.2.0]hept-3-yl]-3,5-difluorophenyl}-5-{2-[(2S)-1-{(2S)-2-[(methoxycarbonyl)amino]-3-methylbutanoyl}pyrrolidin-2-yl]-1H-benzimidazol-5-yl}pyrrolidin-2-yl]-1H-benzimidazol-2-yl}pyrrolidin-1-yl]-3-methyl-1-oxobutan-2-yl}carbamate] | < 0.1 |
| COC(=O)N[C@H](C(=O)N1CCC[C@H]1c1nc2cc([C@@H]3CC[C@@H](c4ccc5[nH]c([C@@H]6CCCN6C(=O)[C@@H](NC(=O)OC)C(C)C)nc5c4)N3c3ccc(N4CCCCC4)c(F)c3)ccc2[nH]1)C(C)C [Example 3.15, methyl {(2S)-1-[(2S)-2-{5-[(2S,55)-1-[3-fluoro-4-(piperidin-1-yl)phenyl]-5-{2-[(2S)-1-{(2S)-2-[(methoxycarbonyl)amino]-3-methylbutanoyl}pyrrolidin-2-yl]-1H-benzimidazol-5-yl}pyrrolidin-2-yl]-1H-benzimidazol-2-yl}pyrrolidin-1-yl]-3-methyl-1-oxobutan-2-yl}carbamate] | < 0.1 |
| COC(=O)N[C@H](C(=O)N1CCC[C@H]1c1nc2cc([C@H]3CC[C@H](c4cc5nc([C@@H]6CCCN6C(=O)[C@@H](NC(=O)OC)[C@@H](C)OC)[nH]c5cc4F)N3c3cc(F)c(N4CCN(c5c(F)cccc5F)CC4)c(F)c3)c(F)cc2[nH]1)[C@@H](C)OC [Example 3.48, methyl {(2S,3R)-1-[(2S)-2-{5-[(2R,5R)-1-{4-[4-(2,6-difluorophenyl)piperazin-1-yl]-3,5-difluorophenyl}-5-(6-fluoro-2-{(2S)-1-[N-(methoxycarbonyl)-O-methyl-L-threonyl]pyrrolidin-2-yl}-1H-benzimidazol-5-yl)pyrrolidin-2-yl]-6-fluoro-1H-benzimidazol-2-yl}pyrrolidin-1-yl]-3-methoxy-1-oxobutan-2-yl}carbamate] | < 0.1 |
| COC(=O)N[C@H](C(=O)N1CCC[C@H]1c1nc2ccc([C@H]3CC[C@H](c4cc5[nH]c([C@@H]6CCCN6C(=O)[C@@H](NC(=O)OC)C(C)C)nc5cc4F)N3c3cc(F)c(N4CCCCC4)c(F)c3)cc2[nH]1)C(C)C [Example 4.43, methyl {(2S)-1-[(2S)-2-{6-[(2R,5R)-1-[3,5-difluoro-4-(piperidin-1-yl)phenyl]-5-{5-fluoro-2-[(2S)-1-{(2S)-2-[(methoxycarbonyl)amino]-3-methylbutanoyl}pyrrolidin-2-yl]-1H-benzimidazol-6-yl}pyrrolidin-2-yl]-1H-benzimidazol-2-yl}pyrrolidin-1-yl]-3-methyl-1-oxobutan-2-yl}carbamate] | < 0.1 |
| COC(=O)N[C@H](C(=O)N1CCC[C@H]1c1nc2cc([C@H]3CC[C@H](c4cc5nc([C@@H]6CCCN6C(=O)[C@@H](NC(=O)OC)C(C)C)[nH]c5cc4F)N3c3cc(F)c(N4CCC(CCCc5ccccc5)CC4)c(F)c3)c(F)cc2[nH]1)C(C)C [Example 4.26, methyl {(2S)-1-[(2S)-2-{5-[(2R,5R)-1-{3,5-difluoro-4-[4-(3-phenylpropyl)piperidin-1-yl]phenyl}-5-{6-fluoro-2-[(2S)-1-{(2S)-2-[(methoxycarbonyl)amino]-3-methylbutanoyl}pyrrolidin-2-yl]-1H-benzimidazol-5-yl}pyrrolidin-2-yl]-6-fluoro-1H-benzimidazol-2-yl}pyrrolidin-1-yl]-3-methyl-1-oxobutan-2-yl}carbamate] | < 0.1 |
| COC(=O)N[C@H](C(=O)N1CCC[C@H]1c1nc2ccc([C@H]3CC[C@H](c4ccc5nc([C@@H]6CCCN6C(=O)[C@@H](NC(=O)OC)C(C)C)[nH]c5c4)N3c3cc(F)c(N4CCC(CCCc5ccccc5)CC4)c(F)c3)cc2[nH]1)C(C)C [Example 2.10, methyl {(2S)-1-[(2S)-2-{5-[(2R,5R)-1-{3,5-difluoro-4-[4-(3-phenylpropyl)piperidin-1-yl]phenyl}-5-{2-[(2S)-1-{(2S)-2-[(methoxycarbonyl)amino]-3-methylbutanoyl}pyrrolidin-2-yl]-1H-benzimidazol-5-yl}pyrrolidin-2-yl]-1H-benzimidazol-2-yl}pyrrolidin-1-yl]-3-methyl-1-oxobutan-2-yl}carbamate] | < 0.1 |
